Legend:
wild type PKR [1] = molecular target: T1, wild type PKR (Homo sapiens, UniProt P30613); assay: PKR mutant assay (AC50), wild type PKR; assay type: biochemical; conditions: wild type PKR enzyme; read-out: PKR WT AC50
Method in brief: (§1)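 Compounds were tested from 100 μM final, 3-fold over 11 points, and held 60 min at room temperature with enzyme (40-400 ng/well wild-type, R510Q or K410E PKR). ADP 0.2-1.65 mM then started the reaction, with PEP 0.1-0.5 mM in pH 7.5 Tris/KCl/MgCl2 buffer. LDH/NADH (180 μM) coupled read-out was taken as A340 change, fitted to AC50.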

wild type PKR [2] = molecular target: T1, wild type PKR; assay: Cell based ATP assay in purified red blood cells; design: endogenous in cells; host or cells: purified red blood cells from blood of healthy volunteers; conditions: RBCs, overnight at 37° C., ATP levels by Cell-Titer-Glo
Method in brief: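 ATP content was measured by CellTiter-Glo after overnight exposure to compound at 37 °C. Cells were purified red blood cells from healthy donors, filtered to remove leukocytes and suspended at 1×10^7 cells/mL in AGAM medium. Compounds were serially diluted 1:4, with 0.1% DMSO final.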

PKR R510Q = PKR R510Q (Homo sapiens, UniProt P30613, R510Q); assay: PKR mutant assay (AC50), PKR R510Q; assay type: biochemical; conditions: PKR R510Q mutant enzyme; read-out: PK R510Q AC50
Sequence of PKR R510Q (P30613 whole entry R510Q): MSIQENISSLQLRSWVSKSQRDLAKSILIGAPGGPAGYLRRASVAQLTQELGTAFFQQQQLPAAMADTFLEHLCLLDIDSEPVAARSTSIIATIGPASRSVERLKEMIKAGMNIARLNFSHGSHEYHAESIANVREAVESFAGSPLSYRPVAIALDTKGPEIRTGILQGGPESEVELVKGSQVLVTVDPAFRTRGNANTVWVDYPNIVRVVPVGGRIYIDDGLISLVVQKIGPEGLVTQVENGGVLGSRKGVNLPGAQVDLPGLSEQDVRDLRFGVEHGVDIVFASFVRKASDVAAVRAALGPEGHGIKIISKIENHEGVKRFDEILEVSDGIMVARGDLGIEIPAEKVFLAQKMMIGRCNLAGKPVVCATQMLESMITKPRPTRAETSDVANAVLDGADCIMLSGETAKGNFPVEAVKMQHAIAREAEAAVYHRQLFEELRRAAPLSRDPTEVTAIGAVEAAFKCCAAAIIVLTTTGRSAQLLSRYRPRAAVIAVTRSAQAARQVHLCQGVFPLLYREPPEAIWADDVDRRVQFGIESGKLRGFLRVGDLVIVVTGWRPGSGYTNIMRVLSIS
Method in brief: as §1

PKR K410E = PKR K410E (Homo sapiens, UniProt P30613, K410E); assay: PKR mutant assay (AC50), PKR K410E; assay type: biochemical; conditions: PKR K410E mutant enzyme
Sequence of PKR K410E (P30613 whole entry K410E): as the sequence (P30613 whole entry R510Q) above, with K410E, Q510R counted along it
Method in brief: as §1

T1 sequence (P30613 whole entry): as the sequence (P30613 whole entry R510Q) above, with Q510R counted along it

| Compound | AC50 (wild type PKR [1]) | AC50 (wild type PKR [2]) | AC50 (PKR R510Q) | AC50 (PKR K410E) |
| --- | --- | --- | --- | --- |
| Cn1c2nc(Cc3cc[nH]n3)sc2c2cnn(Cc3ccn[nH]3)c(=O)c21 | < 300 nM | ≤ 1000 nM | < 300 nM | < 300 nM |
| Cn1c2nc(Cc3ccccn3)sc2c2cnn(Cc3cc[nH]n3)c(=O)c21 | < 300 nM | ≤ 1000 nM | < 300 nM | < 300 nM |
| Cn1c2nc(Cc3csc(CO)n3)sc2c2cnn(Cc3nccs3)c(=O)c21 | < 300 nM | ≤ 1000 nM | < 300 nM | < 300 nM |
| Cn1c2nc(Cc3cc[nH]n3)sc2c2cnn(Cc3ncns3)c(=O)c21 | < 300 nM | ≤ 1000 nM | < 300 nM | < 300 nM |
| Cn1c2nc(Cc3c[nH]cn3)sc2c2cnn(Cc3ncsc3C(F)(F)F)c(=O)c21 | > 800 nM | > 1000 nM | > 800 nM | > 800 nM |
| Cn1c2nc(Cc3c[nH]cn3)sc2c2cnn(Cc3ncsc3Cl)c(=O)c21 | < 300 nM | ≤ 1000 nM | < 300 nM | < 300 nM |
| Cn1c2nc(Cc3c[nH]nn3)sc2c2cnn(Cc3nccs3)c(=O)c21 | 301 to 800 nM | ≤ 1000 nM | < 300 nM | < 300 nM |
| Cn1ccc(Cn2ncc3c4sc(Cc5ccccn5)nc4n(C)c3c2=O)n1 | < 300 nM | ≤ 1000 nM | < 300 nM | < 300 nM |
| Cn1c2nc(Cc3cc[nH]n3)sc2c2cnn(Cc3cocn3)c(=O)c21 | < 300 nM | ≤ 1000 nM | < 300 nM | < 300 nM |
| Cn1c2nc(Cc3ccccn3)sc2c2cnn(Cc3c[nH]nn3)c(=O)c21 | < 300 nM | ≤ 1000 nM | < 300 nM | < 300 nM |
| Cn1c2nc(Cc3cc[nH]n3)sc2c2cnn(Cc3ncsc3N)c(=O)c21 | < 300 nM | ≤ 1000 nM | < 300 nM | < 300 nM |
| Cn1c2nc(Cc3ncsc3Br)sc2c2cnn(Cc3cc[nH]n3)c(=O)c21 | < 300 nM | ≤ 1000 nM | < 300 nM | < 300 nM |
| Cn1ccc(Cn2ncc3c4sc(Cc5c[nH]nn5)nc4n(C)c3c2=O)n1 | < 300 nM | ≤ 1000 nM | < 300 nM | < 300 nM |
| Cn1c2nc(Cc3c[nH]nn3)sc2c2cnn(Cc3cc[nH]n3)c(=O)c21 | < 300 nM | ≤ 1000 nM | < 300 nM | < 300 nM |
| Cn1c2nc(Cc3cc[nH]n3)sc2c2cnn(Cc3nncs3)c(=O)c21 | < 300 nM | ≤ 1000 nM | < 300 nM | < 300 nM |

More lines, now with the values ahead:

| AC50 (wild type PKR [1]) | AC50 (wild type PKR [2]) | AC50 (PKR R510Q) | AC50 (PKR K410E) | Compound |
| --- | --- | --- | --- | --- |
| < 300 nM | ≤ 1000 nM | < 300 nM | < 300 nM | Cn1c2nc(Cc3cc[nH]n3)sc2c2cnn(Cc3csc(CO)n3)c(=O)c21 |
| < 300 nM | ≤ 1000 nM | < 300 nM | < 300 nM | Cn1c2nc(Cc3cscn3)sc2c2cnn(Cc3csc(N)n3)c(=O)c21 |
| < 300 nM | ≤ 1000 nM | < 300 nM | < 300 nM | Cn1c2nc(Cc3cscn3)sc2c2cnn(Cc3cscn3)c(=O)c21 |
| < 300 nM | ≤ 1000 nM | < 300 nM | < 300 nM | Cn1ccc(Cn2ncc3c4sc(Cc5cscn5)nc4n(C)c3c2=O)n1 |
| < 300 nM | ≤ 1000 nM | < 300 nM | < 300 nM | Cn1c2nc(Cc3ccccn3)sc2c2cnn(Cc3csc(N)n3)c(=O)c21 |
| < 300 nM | ≤ 1000 nM | < 300 nM | < 300 nM | Cn1c2nc(Cc3ccccn3)sc2c2cnn(Cc3cscn3)c(=O)c21 |
| < 300 nM | ≤ 1000 nM | < 300 nM | < 300 nM | Cn1c2nc(Cc3cscn3)sc2c2cnn(Cc3cc[nH]n3)c(=O)c21 |
| < 300 nM | ≤ 1000 nM | < 300 nM | < 300 nM | Cn1ccc(Cn2ncc3c4sc(Cc5csc(CO)n5)nc4n(C)c3c2=O)n1 |
| < 300 nM | ≤ 1000 nM | < 300 nM | < 300 nM | Cn1c2nc(Cc3c[nH]nn3)sc2c2cnn(Cc3cscn3)c(=O)c21 |

From patent US11040036B2, “Pyruvate kinase activators for use in treating blood disorders” (Agios Pharmaceuticals, Inc., priority 2017, dated 2021)
